According to US20130116287A1 (priority 2010, published 2013):
Where “and” joins values, the source holds several entries; their conditions need not be identical. Identical values can stand only once.

Columns and labels:
[1] = Measurement of logP values by HPLC on reversed phase columns (EEC directive 79/831 Annex V.A8); type: physicochemical; conditions: HPLC; for Log P [I1] main isomer / Log P [I2] minor isomer / Log P (two values printed, isomers not assigned): pH 2.7, 0.1% formic acid; for Log P (two values printed, isomers not assigned): two values without isomer tag; for Log P: pH 2.7, 0.1% formic acid in water / acetonitrile, single value
Phytophthora infestans = type: in vivo; conditions: 500 ppm of active ingredient; tomato, preventive; evaluated 7 days after inoculation; 100% = no disease

SMILES: Cc1snnc1C(=NOCc1csc(NC(=O)C(F)(F)Oc2ccccc2)n1)c1ccccc1 (mixture of isomers) [Example 1]
- Log P [I1] main isomer [1]: 4.25
- Log P [I2] minor isomer [1]: 4.15
- efficacy (Phytophthora infestans): 100%

SMILES: Cc1snnc1C(=NOCc1csc(NC(=O)CSc2ccccc2)n1)c1ccccc1 (mixture of isomers) [Example 5]
- Log P [I1] main isomer [1]: 3.89
- Log P [I2] minor isomer [1]: 3.78
- efficacy (Phytophthora infestans): 95%

SMILES: Cc1snnc1C(=NOCc1cccc(NC(=O)COc2ccccc2)n1)c1ccccc1 (mixture of isomers) [Example 9]
- Log P [I1] main isomer [1]: 4.14
- Log P [I2] minor isomer [1]: 4.01
- efficacy (Phytophthora infestans): 95%

SMILES: CC(=O)OCC(=O)Nc1nc(CON=C(c2ccccc2)c2nnsc2C)cs1 (mixture of isomers) [Example 11]
- Log P [I1] main isomer [1]: 2.78
- Log P [I2] minor isomer [1]: 2.68

SMILES: CC(=O)OCC(=O)Nc1cccc(CON=C(c2ccccc2)c2nnsc2C)n1 (mixture of isomers) [Example 12]
- Log P [I1] main isomer [1]: 2.93
- Log P [I2] minor isomer [1]: 2.82
- efficacy (Phytophthora infestans): 70%

SMILES: Cc1snnc1C(=NOCc1cccc(NC(=O)COCc2ccccc2)n1)c1ccccc1 (mixture of isomers) [Example 29]
- Log P [I1] main isomer [1]: 4.34
- efficacy (Phytophthora infestans): 93%

SMILES: Cc1snnc1C(=NOCc1csc(NC(=O)COc2ccccc2Cl)n1)c1ccccc1 (mixture of isomers) [Example 31]
- Log P [I1] main isomer [1]: 4.19
- Log P [I2] minor isomer [1]: 4.06
- efficacy (Phytophthora infestans): 95%

SMILES: Cc1snnc1C(=NOCc1cccc(NC(=O)COc2ccccc2Cl)n1)c1ccccc1 (mixture of isomers) [Example 32]
- Log P [I1] main isomer [1]: 4.61
- Log P [I2] minor isomer [1]: 4.49
- efficacy (Phytophthora infestans): 93%

SMILES: Cc1snnc1C(=NOCc1csc(NC(=O)COc2ccc(Cl)cc2)n1)c1ccccc1 (mixture of isomers) [Example 33]
- Log P (two values printed, isomers not assigned) [1]: 4.09
- efficacy (Phytophthora infestans): 100%

SMILES: Cc1snnc1C(=NOCc1cccc(NC(=O)COc2ccc(Cl)cc2)n1)c1ccccc1 (mixture of isomers) [Example 35]
- Log P [I1] main isomer [1]: 4.51
- efficacy (Phytophthora infestans): 95%

SMILES: Cc1snnc1C(=NOCc1csc(NC(=O)COc2cccc(Cl)c2)n1)c1ccccc1 (mixture of isomers) [Example 41]
- Log P (two values printed, isomers not assigned) [1]: 4.24 and 4.11
- efficacy (Phytophthora infestans): 100%

SMILES: Cc1snnc1C(=NOCc1cccc(NC(=O)COc2cccc(Cl)c2)n1)c1ccccc1 (mixture of isomers) [Example 43]
- Log P [I1] main isomer [1]: 4.53
- Log P [I2] minor isomer [1]: 4.41

SMILES: COc1ccccc1OCC(=O)Nc1cccc(CON=C(c2ccccc2)c2nnsc2C)n1 (mixture of isomers) [Example 58]
- Log P [I1] main isomer [1]: 4.24
- Log P [I2] minor isomer [1]: 4.11
- efficacy (Phytophthora infestans): 95%

SMILES: CC(=O)OC(C)(C)C(=O)Nc1nc(CON=C(c2ccccc2)c2nnsc2C)cs1 (mixture of isomers) [Example 100]
- Log P [I1] main isomer [1]: 3.35
- Log P [I2] minor isomer [1]: 3.25
- efficacy (Phytophthora infestans): 95%

SMILES: CC(=O)OC(C)(C)C(=O)Nc1cccc(CON=C(c2ccccc2)c2nnsc2C)n1 (mixture of isomers) [Example 101]
- Log P [I1] main isomer [1]: 3.48
- Log P [I2] minor isomer [1]: 3.35
- efficacy (Phytophthora infestans): 95%

SMILES: Cc1snnc1C(=NOCc1cccc(NC(=O)COCCC(C)C)n1)c1ccccc1 [Example 4]
- efficacy (Phytophthora infestans): 93%

SMILES: Cc1snnc1C(=NOCc1cccc(NC(=O)COc2ccccc2)n1)c1ccccc1 [Example 10]
- Log P [1]: 4.11
- efficacy (Phytophthora infestans): 98%

SMILES: C#CCOC(C)C(=O)Nc1nc(CON=C(c2ccccc2)c2nnsc2C)cs1 (centres unmarked) [Example 13]
- Log P [1]: 3.29
- efficacy (Phytophthora infestans): 100%

SMILES: C#CCOC(C)C(=O)Nc1cccc(CON=C(c2ccccc2)c2nnsc2C)n1 (centres unmarked) [Example 14]
- Log P [1]: 3.58
- efficacy (Phytophthora infestans): 100%

SMILES: Cc1snnc1C(=NOCc1cccc(NC(=O)C(C)Oc2ccccc2)n1)c1ccccc1 (centres unmarked) [Example 16]
- Log P [1]: 4.41
- efficacy (Phytophthora infestans): 100%

SMILES: Cc1snnc1C(=NOCc1csc(NC(=O)COCC2CC2)n1)c1ccccc1 [Example 17]
- Log P [1]: 3.53
- efficacy (Phytophthora infestans): 97%

SMILES: Cc1snnc1C(=NOCc1cccc(NC(=O)COCC2CC2)n1)c1ccccc1 [Example 18]
- Log P [1]: 3.92
- efficacy (Phytophthora infestans): 100%

SMILES: C=CCCOC(C)C(=O)Nc1nc(CON=C(c2ccccc2)c2nnsc2C)cs1 (centres unmarked) [Example 19]
- Log P [1]: 3.99
- efficacy (Phytophthora infestans): 98%

SMILES: C=CCCOC(C)C(=O)Nc1cccc(CON=C(c2ccccc2)c2nnsc2C)n1 (centres unmarked) [Example 20]
- Log P [1]: 4.36
- efficacy (Phytophthora infestans): 95%

SMILES: CCCCOCC(=O)Nc1nc(CON=C(c2ccccc2)c2nnsc2C)cs1 [Example 21]
- Log P [1]: 3.99
- efficacy (Phytophthora infestans): 93%

SMILES: CCCCOCC(=O)Nc1cccc(CON=C(c2ccccc2)c2nnsc2C)n1 [Example 22]
- Log P [1]: 4.41
- efficacy (Phytophthora infestans): 95%

SMILES: Cc1snnc1C(=NOCc1cccc(NC(=O)COC2CCCC2)n1)c1ccccc1 [Example 24]
- Log P [1]: 4.51
- efficacy (Phytophthora infestans): 95%

SMILES: C=CCOC(C)C(=O)Nc1cccc(CON=C(c2ccccc2)c2nnsc2C)n1 (centres unmarked) [Example 26]
- Log P [1]: 3.94
- efficacy (Phytophthora infestans): 95%

SMILES: Cc1snnc1C(=NOCc1cccc(NC(=O)COCc2ccccc2)n1)c1ccccc1 [Example 30]
- Log P [1]: 4.29
- efficacy (Phytophthora infestans): 95%

SMILES: Cc1snnc1C(=NOCc1csc(NC(=O)COc2ccc(Cl)cc2)n1)c1ccccc1 [Example 34]
- Log P [1]: 4.19
- efficacy (Phytophthora infestans): 100%

SMILES: Cc1snnc1C(=NOCc1cccc(NC(=O)COc2ccc(Cl)cc2)n1)c1ccccc1 [Example 36]
- Log P [1]: 4.49
- efficacy (Phytophthora infestans): 100%

SMILES: C=CCCOCC(=O)Nc1nc(CON=C(c2ccccc2)c2nnsc2C)cs1 [Example 37]
- Log P [1]: 3.68
- efficacy (Phytophthora infestans): 98%

SMILES: C=CCCOCC(=O)Nc1cccc(CON=C(c2ccccc2)c2nnsc2C)n1 [Example 38]
- Log P [1]: 3.99
- efficacy (Phytophthora infestans): 100%

SMILES: Cc1snnc1C(=NOCc1cccc(NC(=O)C(C)OCC2CC2)n1)c1ccccc1 (centres unmarked) [Example 40]
- efficacy (Phytophthora infestans): 97%

SMILES: Cc1snnc1C(=NOCc1csc(NC(=O)COc2cccc(Cl)c2)n1)c1ccccc1 [Example 42]
- Log P [1]: 4.19
- efficacy (Phytophthora infestans): 100%

SMILES: Cc1snnc1C(=NOCc1csc(NC(=O)COc2ccc(I)cc2)n1)c1ccccc1 [Example 45]
- Log P [1]: 4.44
- efficacy (Phytophthora infestans): 100%

SMILES: Cc1snnc1C(=NOCc1cccc(NC(=O)COc2ccc(I)cc2)n1)c1ccccc1 [Example 46]
- efficacy (Phytophthora infestans): 100%

SMILES: C#CCOCC(=O)Nc1nc(CON=C(c2ccccc2)c2nnsc2C)cs1 [Example 47]
- Log P [1]: 3.04
- efficacy (Phytophthora infestans): 95%

SMILES: C#CCOCC(=O)Nc1cccc(CON=C(c2ccccc2)c2nnsc2C)n1 [Example 48]
- Log P [1]: 3.29
- efficacy (Phytophthora infestans): 100%

SMILES: Cc1snnc1C(=NOCc1csc(NC(=O)C(C)OCCC(C)C)n1)c1ccccc1 (centres unmarked) [Example 49]
- Log P [1]: 4.68
- efficacy (Phytophthora infestans): 98%

SMILES: Cc1snnc1C(=NOCc1cccc(NC(=O)C(C)OCCC(C)C)n1)c1ccccc1 (centres unmarked) [Example 50]
- Log P [1]: 5.11
- efficacy (Phytophthora infestans): 97%

SMILES: Cc1snnc1C(=NOCc1csc(NC(=O)CSCCc2ccccc2)n1)c1ccccc1 [Example 51]
- Log P [1]: 4.24

SMILES: Cc1snnc1C(=NOCc1cccc(NC(=O)CSCCc2ccccc2)n1)c1ccccc1 [Example 52]
- Log P [1]: 4.53
- efficacy (Phytophthora infestans): 97%

SMILES: Cc1snnc1C(=NOCc1cccc(NC(=O)COCC2CCC2)n1)c1ccccc1 [Example 54]
- Log P [1]: 4.54
- efficacy (Phytophthora infestans): 97%

SMILES: Cc1snnc1C(=NOCc1csc(NC(=O)C(C)OC2CCCCC2)n1)c1ccccc1 (centres unmarked) [Example 55]
- Log P [1]: 4.76
- efficacy (Phytophthora infestans): 98%

SMILES: Cc1snnc1C(=NOCc1cccc(NC(=O)C(C)OC2CCCCC2)n1)c1ccccc1 (centres unmarked) [Example 56]
- Log P [1]: 5.22
- efficacy (Phytophthora infestans): 98%

SMILES: Cc1snnc1C(=NOCc1cccc(NC(=O)COC2CCCCC2)n1)c1ccccc1 [Example 60]
- Log P [1]: 4.91
- efficacy (Phytophthora infestans): 95%

SMILES: Cc1snnc1C(=NOCc1cccc(NC(=O)CSCCC(C)C)n1)c1ccccc1 [Example 68]
- efficacy (Phytophthora infestans): 95%

SMILES: Cc1snnc1C(=NOCc1cccc(NC(=O)C(C)Oc2ccc(F)cc2)n1)c1ccccc1 (centres unmarked) [Example 96]
- efficacy (Phytophthora infestans): 97%

SMILES: CCCCOC(C)C(=O)Nc1cccc(CON=C(c2ccccc2)c2nnsc2C)n1 (centres unmarked) [Example 97]
- efficacy (Phytophthora infestans): 97%

SMILES: Cc1snnc1C(=NOCc1csc(NC(=O)C(C)OCC2CCC2)n1)c1ccccc1 (centres unmarked) [Example 110]
- Log P [1]: 4.49

SMILES: Cc1snnc1C(=NOCc1cccc(NC(=O)C(C)OCC2CCC2)n1)c1ccccc1 (centres unmarked) [Example 111]
- Log P [1]: 4.93
